According to publication PMC10535856, “CD4^+ T Cell Responses to Toxoplasma gondii Are a Double-Edged Sword” (Vaccines, 2023):
Where no end group is shown, it is not given here.

Columns and labels:
[1] = system: Toxoplasma gondii tachyzoites and encysted bradyzoites; settings: cited from earlier work
I-A^b [2] = target: T1, I-A^b (Mus musculus, UniProt P14434+P14483); set-up: method as in PMID 7895164, PMID 32763137; settings: cited from earlier work
T1 sequence (P14434 24-256): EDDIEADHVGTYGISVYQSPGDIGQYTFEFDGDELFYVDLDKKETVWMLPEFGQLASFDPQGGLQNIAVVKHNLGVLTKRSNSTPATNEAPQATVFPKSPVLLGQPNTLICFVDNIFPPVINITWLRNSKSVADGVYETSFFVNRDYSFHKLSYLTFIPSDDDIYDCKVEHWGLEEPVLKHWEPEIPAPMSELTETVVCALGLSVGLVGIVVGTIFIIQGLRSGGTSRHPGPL
T1 sequence (P14483 28-265): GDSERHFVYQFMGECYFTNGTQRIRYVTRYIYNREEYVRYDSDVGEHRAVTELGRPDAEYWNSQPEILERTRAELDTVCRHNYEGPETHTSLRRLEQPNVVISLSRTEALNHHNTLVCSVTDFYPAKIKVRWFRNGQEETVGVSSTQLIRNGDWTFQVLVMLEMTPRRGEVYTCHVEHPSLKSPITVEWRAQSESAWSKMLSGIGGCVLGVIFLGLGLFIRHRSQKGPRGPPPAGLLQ

CD4^+ T cells = settings: in vitro human PBMCs and in vivo mice; cited from earlier work
Description: Vaccines that are composed of polypeptides that elicit epitope-restricted CD4^+ and CD8^+ T cells have the potential to induce an immune response against human toxoplasmic infection in humans. We are building a rational “immunosense” approach that utilizes epitope selection for peptides that can be presented by human major histocompatibility complexes (MHCs) to elicit protective CD8^+ and CD4^+ T cells. We have made considerable efforts to iden ...

[3] = system: uninfected HLA-A*11:01 transgenic mice; test: Mortality and tolerability after boost immunization; format: in vivo, mouse
I-A^b [4] = target: T1, I-A^b; test: Competitive peptide binding to I-A^b; settings: competitive binding study, procedure of ref 51; 'bound weakly'

Q: For `CCc1nc(N)nc(N)c1-c1ccc(Cl)cc1` [Pyrimethamine], which “Activity against actively replicating tachyzoites” value [1] is on record?
A: Its value is “effective against actively replicating tachyzoites”.

Q: And the “Elimination of encysted bradyzoites” value [1]?
A: The value was “cannot eliminate encysted bradyzoites”.

Q: With `Nc1ccc(S(=O)(=O)Nc2ncccn2)cc1` [sulfadiazine] as the compound, how does the “Activity against actively replicating tachyzoites” value [1] read?
A: Its value is “effective against actively replicating tachyzoites”.

Q: What about the “Elimination of encysted bradyzoites” value [1] of the same compound?
A: Its value is “cannot eliminate encysted bradyzoites”.

Q: Which results are given for AKFVAAWTLKAAA [PADRE]?
A: Affinity to I-A^b (I-A^b [2]): relatively high affinity; Generation of responsive CD4^+ T cells (CD4^+ T cells): contributes to the generation of responsive CD4^+ T cells

Q: With AVEIHRPVPGTAPPS [AS15, AVEIHRPVPGTAPPS] as the compound, how does the “Harmful response to single components” value ([3]; AS15 or GLA-SE alone) read?
A: The value was “neither AS15 nor GLA-SE alone elicit this harmful response”.

Q: And the “Overall effect in summary cartoon” value ([3]; Figure S1, single components)?
A: Its value is “No effect”.

Q: What about the IC50 (I-A^b [4]) of the same compound?
A: Its IC50 is 0.413 µM.
